Reference: PMC5218480 (PLoS ONE, 2017)

Test system: MV-4-11 cells
Test: Gene expression microarray analysis (Affymetrix PrimeView) and GSEA
Format: cell-based, human
Set-up: RFU PODN (11730768_x_at) / Fold change /veh PODN (11730768_x_at) / RFU LINC00158 (11744669_a_at) / Fold change /veh LINC00158 (11744669_a_at) / RFU DUSP10 (11751237_a_at) / Fold change /veh DUSP10 (11751237_a_at) / RFU ID3 (11757404_x_at) / Fold change /veh ID3 (11757404_x_at) / RFU PLEKHG5 (11737974_s_at) / Fold change /veh PLEKHG5 (11737974_s_at) / RFU LRRC4B (11730491_at) / Fold change /veh LRRC4B (11730491_at) / RFU GIMAP4 (11747438_a_at) / Fold change /veh GIMAP4 (11747438_a_at) / RFU KRT8 (11758183_x_at) / Fold change /veh KRT8 (11758183_x_at) / RFU CNN1 (11734310_a_at) / Fold change /veh CNN1 (11734310_a_at) / RFU VPS37D (11726825_at) / Fold change /veh VPS37D (11726825_at) / RFU C10orf10 (11716522_x_at) / Fold change /veh C10orf10 (11716522_x_at) / RFU KIR2DL2 /// KIR2DL4 /// KIR2DL5A /// KIR2DL5B /// KIR2DS1 /// KIR2DS2 /// KIR2DS3 /// KIR2DS4 /// KIR3DL3 /// KIR3DL3 /// KIR3DS1 (11738374_at) / Fold change /veh KIR2DL2 /// KIR2DL4 /// KIR2DL5A /// KIR2DL5B /// KIR2DS1 /// KIR2DS2 /// KIR2DS3 /// KIR2DS4 /// KIR3DL3 /// KIR3DL3 /// KIR3DS1 (11738374_at) / RFU C1QL1 (11718748_at) / Fold change /veh C1QL1 (11718748_at) / RFU TMPRSS4 (11747572_a_at) / Fold change /veh TMPRSS4 (11747572_a_at) / RFU HAMP (11756126_x_at) / Fold change /veh HAMP (11756126_x_at) / RFU RNFT2 (11725882_a_at) / Fold change /veh RNFT2 (11725882_a_at) / RFU NR4A2 (11747474_a_at) / Fold change /veh NR4A2 (11747474_a_at) / RFU ABCC12 (11746883_a_at) / Fold change /veh ABCC12 (11746883_a_at) / RFU TMEM136 (11760407_x_at) / Fold change /veh TMEM136 (11760407_x_at) / RFU CLDN22 /// WWC2 (11732394_at) / Fold change /veh CLDN22 /// WWC2 (11732394_at) / RFU HLA-DPB1 (11760878_x_at) / Fold change /veh HLA-DPB1 (11760878_x_at) / RFU SPINT1 (11716480_a_at) / Fold change /veh SPINT1 (11716480_a_at) / RFU GAP43 (11754022_s_at) / Fold change /veh GAP43 (11754022_s_at) / RFU A4GNT (11735810_at) / Fold change /veh A4GNT (11735810_at) / RFU PRB3 (11715151_x_at) / Fold change /veh PRB3 (11715151_x_at) / RFU TUBB4B (11761932_at) / Fold change /veh TUBB4B (11761932_at) / RFU CAPN14 (11732068_a_at) / Fold change /veh CAPN14 (11732068_a_at) / RFU TMCC2 (11721928_a_at) / Fold change /veh TMCC2 (11721928_a_at) / RFU IRGQ (11745062_a_at) / Fold change /veh IRGQ (11745062_a_at) / RFU FAM174B (11720279_a_at) / Fold change /veh FAM174B (11720279_a_at) / RFU TMPRSS4 (11748680_a_at) / Fold change /veh TMPRSS4 (11748680_a_at) / RFU FAM212B (11763350_a_at) / Fold change /veh FAM212B (11763350_a_at) / RFU PLEKHG5 (11743358_a_at) / Fold change /veh PLEKHG5 (11743358_a_at) / RFU ZSCAN30 (11745921_a_at) / Fold change /veh ZSCAN30 (11745921_a_at) / RFU CMKLR1 (11741424_a_at) / Fold change /veh CMKLR1 (11741424_a_at) / RFU LOC101060620 /// MAPK8IP1 (11723275_at) / Fold change /veh LOC101060620 /// MAPK8IP1 (11723275_at) / RFU SPTSSB (11747773_x_at) / Fold change /veh SPTSSB (11747773_x_at) / RFU PRSS12 (11739890_at) / Fold change /veh PRSS12 (11739890_at) / RFU BIN1 (11741810_x_at) / Fold change /veh BIN1 (11741810_x_at) / RFU WNT11 (11732464_a_at) / Fold change /veh WNT11 (11732464_a_at) / RFU C10orf10 (11716521_a_at) / Fold change /veh C10orf10 (11716521_a_at) / RFU C5orf56 (11738089_at) / Fold change /veh C5orf56 (11738089_at) / RFU CYB561 (11721691_x_at) / Fold change /veh CYB561 (11721691_x_at) / RFU ANKRD19P (11752326_a_at) / Fold change /veh ANKRD19P (11752326_a_at) / RFU OR2T12 /// OR2T33 /// OR2T8 (11738714_s_at) / Fold change /veh OR2T12 /// OR2T33 /// OR2T8 (11738714_s_at) / RFU VCAN (11748164_a_at) / Fold change /veh VCAN (11748164_a_at) / RFU JSRP1 (11732532_at) / Fold change /veh JSRP1 (11732532_at) / RFU KRTAP10-11 (11738290_x_at) / Fold change /veh KRTAP10-11 (11738290_x_at) / RFU MYO3A (11730013_a_at) / Fold change /veh MYO3A (11730013_a_at) / RFU EBF3 (11725865_a_at) / Fold change /veh EBF3 (11725865_a_at) / RFU CAMK2N1 (11719241_x_at) / Fold change /veh CAMK2N1 (11719241_x_at) / RFU C5orf56 (11738088_a_at) / Fold change /veh C5orf56 (11738088_a_at) / RFU OLFML3 (11715873_a_at) / Fold change /veh OLFML3 (11715873_a_at) / RFU LOC100653217 /// NTM (11731650_a_at) / Fold change /veh LOC100653217 /// NTM (11731650_a_at) / RFU MAPK11 (11762145_a_at) / Fold change /veh MAPK11 (11762145_a_at) / RFU FIZ1 (11724087_x_at) / Fold change /veh FIZ1 (11724087_x_at) / RFU OASL (11726364_x_at) / Fold change /veh OASL (11726364_x_at) / RFU SOX15 (11748057_x_at) / Fold change /veh SOX15 (11748057_x_at) / RFU CD79A (11719716_a_at) / Fold change /veh CD79A (11719716_a_at) / RFU HIST1H1D (11736915_at) / Fold change /veh HIST1H1D (11736915_at) / RFU CASKIN2 (11723855_a_at) / Fold change /veh CASKIN2 (11723855_a_at) / RFU LOC730098 (11760151_x_at) / Fold change /veh LOC730098 (11760151_x_at) / RFU OR4N2 (11742367_at) / Fold change /veh OR4N2 (11742367_at) / RFU PRRT2 (11749266_a_at) / Fold change /veh PRRT2 (11749266_a_at) / RFU SNX32 (11753110_a_at) / Fold change /veh SNX32 (11753110_a_at) / RFU CDHR5 (11726645_a_at) / Fold change /veh CDHR5 (11726645_a_at) / RFU RCAN1 (11760418_a_at) / Fold change /veh RCAN1 (11760418_a_at) / RFU FAM167A (11723789_a_at) / Fold change /veh FAM167A (11723789_a_at) / RFU FAM26E (11764081_at) / Fold change /veh FAM26E (11764081_at) / RFU ISYNA1 (11749810_s_at) / Fold change /veh ISYNA1 (11749810_s_at) / RFU ACY1 (11761880_at) / Fold change /veh ACY1 (11761880_at) / RFU 11764098_at / Fold change /veh 11764098_at / RFU SAMD14 (11745864_x_at) / Fold change /veh SAMD14 (11745864_x_at) / RFU NPB (11741838_a_at) / Fold change /veh NPB (11741838_a_at) / RFU TMPRSS6 (11731388_a_at) / Fold change /veh TMPRSS6 (11731388_a_at) / RFU KRTAP10-2 (11738614_at) / Fold change /veh KRTAP10-2 (11738614_at) / RFU ARHGAP8 /// PRR5-ARHGAP8 (11727945_x_at) / Fold change /veh ARHGAP8 /// PRR5-ARHGAP8 (11727945_x_at) / RFU KRTAP5-7 /// NADSYN1 (11734609_at) / Fold change /veh KRTAP5-7 /// NADSYN1 (11734609_at) / RFU RASL12 (11751679_a_at) / Fold change /veh RASL12 (11751679_a_at) / RFU CDKN2B (11736163_a_at) / Fold change /veh CDKN2B (11736163_a_at) / RFU PRF1 (11729649_at) / Fold change /veh PRF1 (11729649_at) / RFU, ZNF638 /// ZNF638-IT1 / Fold change vs veh, ZNF638 /// ZNF638-IT1 / RFU, PANK3 / Fold change vs veh, PANK3 / RFU, SH3YL1 / Fold change vs veh, SH3YL1 / RFU, ZEB2 / Fold change vs veh, ZEB2 / RFU, NRIP1 / Fold change vs veh, NRIP1 / RFU, PTTG1IP / Fold change vs veh, PTTG1IP / RFU, CAPN2 / Fold change vs veh, CAPN2 / RFU, MED14 / Fold change vs veh, MED14 / RFU, SNORA58 / Fold change vs veh, SNORA58 / RFU, C1orf63 / Fold change vs veh, C1orf63 / RFU, LRRFIP1 / Fold change vs veh, LRRFIP1 / RFU, NDUFAF7 / Fold change vs veh, NDUFAF7 / RFU, SLC12A2 / Fold change vs veh, SLC12A2 / RFU, IBTK / Fold change vs veh, IBTK / RFU, ESF1 / Fold change vs veh, ESF1 / Fold change vs veh, TMEM50B / RFU, TAOK1 / Fold change vs veh, TAOK1 / RFU, ACBD3 / Fold change vs veh, ACBD3 / RFU, TMA16 / Fold change vs veh, TMA16 / RFU, RWDD3 / Fold change vs veh, RWDD3 / RFU, BCAT1 / Fold change vs veh, BCAT1 / RFU, EDEM3 / Fold change vs veh, EDEM3 / RFU, TMEM33 / Fold change vs veh, TMEM33 / RFU, WDR75 / Fold change vs veh, WDR75 / RFU, AHCTF1 / Fold change vs veh, AHCTF1 / RFU, TFRC / Fold change vs veh, TFRC / RFU, ZDHHC17 / Fold change vs veh, ZDHHC17 / RFU, NOM1 / Fold change vs veh, NOM1 / RFU, ARL8B / Fold change vs veh, ARL8B / RFU, ZBTB11 / Fold change vs veh, ZBTB11 / RFU, TAMM41 / Fold change vs veh, TAMM41 / RFU, KIAA1704 /// LOC100996395 / Fold change vs veh, KIAA1704 /// LOC100996395 / RFU, ING1 / Fold change vs veh, ING1 / RFU, TRMT61B / Fold change vs veh, TRMT61B / RFU, FUBP3 / Fold change vs veh, FUBP3 / RFU, TP53 / Fold change vs veh, TP53 / RFU, TNKS2 / Fold change vs veh, TNKS2 / RFU, ZFP14 / Fold change vs veh, ZFP14 / RFU, ACTR2 / Fold change vs veh, ACTR2 / RFU, PPP3R1 / Fold change vs veh, PPP3R1 / RFU, PIK3R1 / Fold change vs veh, PIK3R1 / RFU, HNRNPA1 / Fold change vs veh, HNRNPA1 / RFU, RNF170 / Fold change vs veh, RNF170 / RFU, ZNF28 / Fold change vs veh, ZNF28 / RFU, RNGTT / Fold change vs veh, RNGTT / RFU, OGT / Fold change vs veh, OGT / RFU, BRD1 / Fold change vs veh, BRD1 / RFU, MARS / Fold change vs veh, MARS / RFU, ZNF655 / Fold change vs veh, ZNF655 / RFU, FAHD1 / Fold change vs veh, FAHD1 / RFU, BDP1 / Fold change vs veh, BDP1 / RFU, LRRCC1 / Fold change vs veh, LRRCC1 / RFU, ARID1A / Fold change vs veh, ARID1A / RFU, ZNF146 / Fold change vs veh, ZNF146 / RFU, ZNF330 / Fold change vs veh, ZNF330 / RFU, GPN3 / Fold change vs veh, GPN3 / RFU, C9orf123 / Fold change vs veh, C9orf123 / RFU, N4BP2L2 / Fold change vs veh, N4BP2L2 / RFU, ARFIP1 / Fold change vs veh, ARFIP1 / RFU, FAM179B / Fold change vs veh, FAM179B / RFU, BCL10 / Fold change vs veh, BCL10 / RFU, UHRF1BP1L / Fold change vs veh, UHRF1BP1L / RFU, BET1 / Fold change vs veh, BET1 / RFU, CNOT2 / Fold change vs veh, CNOT2 / RFU, ZNF268 / Fold change vs veh, ZNF268 / Fold change vs veh, ZNF507 / RFU, DGCR2 / Fold change vs veh, DGCR2 / RFU, WDSUB1 / Fold change vs veh, WDSUB1 / Fold change vs veh, HSP90B1 /// MIR3652 / RFU, ADSS / Fold change vs veh, ADSS / RFU, GK / Fold change vs veh, GK / RFU, ZNF148 / Fold change vs veh, ZNF148 / RFU, TAF9 / Fold change vs veh, TAF9 / RFU, SLC1A5 / Fold change vs veh, SLC1A5 / RFU, SLMO2 / Fold change vs veh, SLMO2 / RFU, ABCC4 / Fold change vs veh, ABCC4 / RFU, LOC101060439 /// RAP1B / Fold change vs veh, LOC101060439 /// RAP1B / RFU, RFX7 / Fold change vs veh, RFX7 / RFU, GTPBP10 / Fold change vs veh, GTPBP10 / RFU, CNEP1R1 / Fold change vs veh, CNEP1R1 / RFU, BIVM-ERCC5 /// ERCC5 / Fold change vs veh, BIVM-ERCC5 /// ERCC5 / RFU, ILF3 / Fold change vs veh, ILF3 / RFU 11762660_at / Fold change /veh 11762660_at / RFU VCAN (11757783_s_at) / Fold change /veh VCAN (11757783_s_at) / RFU DDX43 (11728927_at) / Fold change /veh DDX43 (11728927_at) / RFU KRT8 (11758188_x_at) / Fold change /veh KRT8 (11758188_x_at) / RFU NKD1 (11759106_at) / Fold change /veh NKD1 (11759106_at) / RFU SRD5A1 (11742802_a_at) / Fold change /veh SRD5A1 (11742802_a_at) / RFU TPSAB1 /// TPSB2 (11721975_s_at) / Fold change /veh TPSAB1 /// TPSB2 (11721975_s_at) / RFU GSTM3 (11746129_a_at) / Fold change /veh GSTM3 (11746129_a_at) / RFU IL23R (11737362_x_at) / Fold change /veh IL23R (11737362_x_at) / RFU TMEM51 (11727254_a_at) / Fold change /veh TMEM51 (11727254_a_at) / RFU PIWIL2 (11732686_x_at) / Fold change /veh PIWIL2 (11732686_x_at) / RFU ORM1 (11744905_x_at) / Fold change /veh ORM1 (11744905_x_at) / RFU CCDC152 (11743942_at) / Fold change /veh CCDC152 (11743942_at) / RFU ECM1 (11717891_a_at) / Fold change /veh ECM1 (11717891_a_at) / RFU IL23R (11748794_a_at) / Fold change /veh IL23R (11748794_a_at) / RFU TNFAIP8L3 (11732012_x_at) / Fold change /veh TNFAIP8L3 (11732012_x_at) / RFU MBOAT4 (11741988_at) / Fold change /veh MBOAT4 (11741988_at) / RFU 11764193_at / Fold change /veh 11764193_at / RFU TMEM53 (11763286_at) / Fold change /veh TMEM53 (11763286_at) / RFU MAGEB2 (11727129_at) / Fold change /veh MAGEB2 (11727129_at) / RFU TMEM200A (11744735_a_at) / Fold change /veh TMEM200A (11744735_a_at) / RFU CCDC152 (11751479_a_at) / Fold change /veh CCDC152 (11751479_a_at) / RFU FAM211A (11726209_a_at) / Fold change /veh FAM211A (11726209_a_at) / RFU RGS16 (11746705_a_at) / Fold change /veh RGS16 (11746705_a_at) / RFU VCAN (11755009_s_at) / Fold change /veh VCAN (11755009_s_at) / RFU RHOB (11743442_s_at) / Fold change /veh RHOB (11743442_s_at) / RFU RGS16 (11720943_a_at) / Fold change /veh RGS16 (11720943_a_at) / RFU RGS16 (11720944_at) / Fold change /veh RGS16 (11720944_at) / RFU, VPS4B / Fold change vs veh, VPS4B / RFU, CREB1 / Fold change vs veh, CREB1 / RFU, DNAJC13 / Fold change vs veh, DNAJC13 / RFU, GNAQ / Fold change vs veh, GNAQ / RFU, CDK5R1 / Fold change vs veh, CDK5R1 / RFU, ZRANB3 / Fold change vs veh, ZRANB3 / RFU, CUL4A / Fold change vs veh, CUL4A / RFU, CCNY / Fold change vs veh, CCNY / RFU, UFL1 / Fold change vs veh, UFL1 / RFU, COG3 / Fold change vs veh, COG3 / RFU, DIAPH2 / Fold change vs veh, DIAPH2 / RFU, SKA2 / Fold change vs veh, SKA2 / RFU, AFF3 / Fold change vs veh, AFF3 / RFU, LMF1 / Fold change vs veh, LMF1 / RFU, IPO11 / Fold change vs veh, IPO11 / RFU, DFFB / Fold change vs veh, DFFB / RFU, FOXP1 / Fold change vs veh, FOXP1 / RFU, CARD8 / Fold change vs veh, CARD8 / RFU, STRN3 / Fold change vs veh, STRN3 / RFU, ADK / Fold change vs veh, ADK / RFU, RASSF2 / Fold change vs veh, RASSF2 / RFU, WIPF1 / Fold change vs veh, WIPF1 / RFU, LARP1B / Fold change vs veh, LARP1B / RFU, RASA1 / Fold change vs veh, RASA1 / RFU, RB1 / Fold change vs veh, RB1 / RFU, PPFIA1 / Fold change vs veh, PPFIA1 / RFU, MAT2A / Fold change vs veh, MAT2A / RFU, CCT5 / Fold change vs veh, CCT5 / RFU, WDR92 / Fold change vs veh, WDR92 / RFU, CUX1 / Fold change vs veh, CUX1 / RFU, TTC7A / Fold change vs veh, TTC7A / RFU, TMEM135 / Fold change vs veh, TMEM135 / RFU, DEPTOR / Fold change vs veh, DEPTOR / RFU, CPM / Fold change vs veh, CPM / RFU, DNAJB6 / Fold change vs veh, DNAJB6 / RFU, CACNA2D3 / Fold change vs veh, CACNA2D3 / RFU, DTX4 / Fold change vs veh, DTX4 / RFU, TFCP2 / Fold change vs veh, TFCP2 / RFU, GMCL1 /// GMCL1P1 / Fold change vs veh, GMCL1 /// GMCL1P1 / RFU, AEBP2 / Fold change vs veh, AEBP2 / RFU, SNHG1 /// SNORD22 /// SNORD25 /// SNORD26 /// SNORD27 /// SNORD28 /// SNORD29 /// SNORD31 / Fold change vs veh, SNHG1 /// SNORD22 /// SNORD25 /// SNORD26 /// SNORD27 /// SNORD28 /// SNORD29 /// SNORD31 / Fold change (Aza/veh), C12orf56 (ProbeSet 11735607_a_at) / Fold change (ACY-1035/veh), C12orf56 (ProbeSet 11735607_a_at) / Fold change (Aza/veh), FGFR1OP (ProbeSet 11751329_s_at) / Fold change (ACY-1035/veh), FGFR1OP (ProbeSet 11751329_s_at) / Fold change (Aza/veh), VPS36 (ProbeSet 11739960_a_at) / Fold change (ACY-1035/veh), VPS36 (ProbeSet 11739960_a_at) / RFU SYPL1 (11715823_x_at) / Fold change /veh SYPL1 (11715823_x_at) / RFU IGFBP7 (11715501_s_at) / Fold change /veh IGFBP7 (11715501_s_at) / RFU REEP3 (11722064_at) / Fold change /veh REEP3 (11722064_at) / RFU IGLL1 (11728026_x_at) / Fold change /veh IGLL1 (11728026_x_at): dose or concentration left out as unconfirmed
Conditions: ProbeSet 11758440_s_at; LIST B

SMILES: Nc1ccc(-c2cccs2)cc1NC(=O)c1ccc2c(c1)cc(C1CC1)n2CCN1CCOCC1 [ACY-1035]
- Fold change vs veh, RFX7: 0.90
